Experiment [1] concerns ERα^WT and ERα^MUT BC cell lines (MCF-7, LCC-2, T-47D, T-47D^D538G, T-47D^Y537S). The experiment is described as follows: Apoptosis by flow cytometry. Type of experiment: cell-based, human. The settings on record: 5 μmol/L, 48 h. A general note: Flow cytometry measures light scatter and fluorescence of single cells or particles in a stream.
In the next experiment the test system is MCF-7 cells. As to the kind of experiment: Cell viability assay. In kind it is cell-based, human.
The target in a further experiment is T1, human ERα LBD (Homo sapiens, UniProt P03372).
T1 sequence (P03372 311-547 limits assumed): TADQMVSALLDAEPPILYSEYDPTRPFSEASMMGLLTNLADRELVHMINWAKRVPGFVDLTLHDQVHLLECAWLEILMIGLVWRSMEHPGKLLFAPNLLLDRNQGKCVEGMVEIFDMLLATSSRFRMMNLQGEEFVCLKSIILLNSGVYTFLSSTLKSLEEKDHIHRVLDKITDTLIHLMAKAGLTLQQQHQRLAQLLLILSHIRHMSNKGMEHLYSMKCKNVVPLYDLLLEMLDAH
As to the kind of experiment: Competitive fluorescence polarization binding assay, ERα. (Polarisation of emitted light reports the rotation of a fluorescent probe.)

Experiment [2] concerns the target T2, ERα (Homo sapiens, UniProt P03372).
T2 sequence (P03372 1-595): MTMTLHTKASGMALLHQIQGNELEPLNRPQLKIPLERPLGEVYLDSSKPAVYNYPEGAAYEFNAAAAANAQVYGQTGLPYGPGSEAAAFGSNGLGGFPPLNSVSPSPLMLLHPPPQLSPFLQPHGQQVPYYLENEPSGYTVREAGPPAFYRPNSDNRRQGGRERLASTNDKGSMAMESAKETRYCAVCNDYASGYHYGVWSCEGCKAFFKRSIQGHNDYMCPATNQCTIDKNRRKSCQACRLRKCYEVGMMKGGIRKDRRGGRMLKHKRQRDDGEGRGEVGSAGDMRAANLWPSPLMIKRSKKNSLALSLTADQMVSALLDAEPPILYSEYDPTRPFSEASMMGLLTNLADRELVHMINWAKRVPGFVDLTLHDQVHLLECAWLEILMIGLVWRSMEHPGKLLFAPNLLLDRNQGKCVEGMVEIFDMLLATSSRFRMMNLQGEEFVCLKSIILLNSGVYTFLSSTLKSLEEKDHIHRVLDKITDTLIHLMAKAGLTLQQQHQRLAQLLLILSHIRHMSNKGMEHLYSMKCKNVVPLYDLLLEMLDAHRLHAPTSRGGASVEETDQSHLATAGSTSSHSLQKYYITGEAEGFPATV
As to the kind of experiment: Immunoblot analysis of ERα degradation in LCC-2 cells. The note with it: 5 μmol/L over 12 h. Type of experiment: cell-based.

Another experiment has as its target T3, ERα Y537S (Homo sapiens, UniProt P03372, Y537S).
T3 sequence (P03372 1-595 Y537S): T2 sequence (P03372 1-595) with Y537S
The experiment is described as follows: Immunoblot analysis of ERα degradation in T-47D^Y537S cells. In kind it is cell-based. The note with it: 5 μmol/L over 12 h. For orientation: In western blotting, separated proteins are transferred to a membrane and probed.

The target in a further experiment is ERβ (Homo sapiens, UniProt Q92731). The experiment is described as follows: ER transcriptional activity. In kind it is cell-based.
Experiment [3] addresses T2, ERα. The experiment is described as follows: cell-based. In kind it is cell-based.
Experiment [4] has as its target T2, ERα. The experiment is described as follows: Immunoblot analysis of ERα degradation in T-47D cells. In kind it is cell-based. The note with it: 5 μmol/L over 12 h.
Another experiment concerns the target T4, ERα C530S mutant (Homo sapiens, UniProt P03372, C530S).
T4 sequence (P03372 1-595 C530S): T2 sequence (P03372 1-595) with C530S
The experiment is described as follows: Transcriptional activity. Type of experiment: cell-based.

The target of experiment [5] is T2, ERα. The experiment is described as follows: Immunoblot analysis of ERα degradation in MCF-7 cells. Type of experiment: cell-based.
[6] abbreviates: control as 0%, 10 nmol/L E2 as 100%.

The source of these data is PMC10692362 (Acta Pharmaceutica Sinica. B, 2023).

Numbering of substitutions follows the chain as printed. “And” between values parts separate entries of the source, which are not always exact repeats. Identical values can stand only once.

The term IC50 denotes the concentration that gives 50% inhibition. For orientation: Ki means the dissociation constant of the complex between target and ligand, obtained from inhibition or displacement. Read a low Ki as a stronger hold on the target.

ERβ, sequence (Q92731 whole entry): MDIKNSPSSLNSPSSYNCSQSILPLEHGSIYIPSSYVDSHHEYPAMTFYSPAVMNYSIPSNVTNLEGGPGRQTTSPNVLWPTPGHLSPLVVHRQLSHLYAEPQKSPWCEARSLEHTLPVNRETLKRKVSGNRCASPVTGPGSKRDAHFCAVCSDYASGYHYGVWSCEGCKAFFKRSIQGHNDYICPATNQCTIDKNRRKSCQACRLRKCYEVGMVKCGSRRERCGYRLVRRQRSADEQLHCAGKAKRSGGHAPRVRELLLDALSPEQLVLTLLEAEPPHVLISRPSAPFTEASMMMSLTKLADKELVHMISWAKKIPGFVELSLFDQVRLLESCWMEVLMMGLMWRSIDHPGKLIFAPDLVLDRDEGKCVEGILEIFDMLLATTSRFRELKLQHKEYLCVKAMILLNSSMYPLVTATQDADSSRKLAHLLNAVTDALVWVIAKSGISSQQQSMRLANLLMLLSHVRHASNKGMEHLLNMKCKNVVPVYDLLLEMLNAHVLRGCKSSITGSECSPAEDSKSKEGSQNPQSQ

On to `CC(C)=CC(=O)Nc1ccc(C2=C(c3ccc(O)cc3)C3OC2CC3S(=O)(=O)N(CC(F)(F)F)c2ccc(O)cc2)cc1` (stereo not shown) [Compound 29c, N-(4-(3-(4-Hydroxyphenyl)-5-(N-(4-hydroxyphenyl)-N-(2,2,2-trifluoroethyl)sulfamoyl)-7-oxabicyclo[2.2.1]hept-2-en-2-yl)phenyl)-3-methylbut-2-enamide], for which, in [1], the Induction of apoptosis entry is “significantly induced apoptosis”. In addition, the “fold higher potency than 4-OHT, MCF-7” value in the experiment with MCF-7 cells came to 12 fold. Also, the concentration for half-maximal inhibition (IC50) was found to be 56 ± 4 nM with MCF-7 cells (Homo sapiens, MCF7, 72 h, read-out: MCF-7 IC50); 23 nM against ERα [3]; 290 nM against ERα C530S mutant. In addition, the “fold higher potency than Ful, MCF-7” value in the experiment on MCF-7 cells (compared with fulvestrant) is reported as 2.5 fold. Moreover, the Ki at human ERα LBD worked out at 0.09 nM. Further, the “RBA ERα” value on human ERα LBD (IC50 estradiol/IC50 compound × 100, estradiol = 100%) was 30.44% and 30.44 ± 1.13%. The α/β ratio at human ERα LBD (ratio of RBA ERα to RBA ERβ) is recorded as 49.90. For the same molecule, the “ERα degradation time course, LCC-2” value on ERα [2] is “completely degraded”. Also, the “ERα degradation time course, T-47D^Y537S” value on ERα Y537S is listed as “completely degraded”. Moreover, on ERβ (setting [6]), the “Agonist mode ERβ Eff (%E2)” value was found to be 19 ± 1 %E2. Besides, the “Antagonist mode ERβ Eff (%E2)” value at ERβ (with 10 nmol/L 17β-estradiol) is 27 ± 2 %E2. On ERα [3] (setting [6]), the “Agonist mode ERα Eff (%E2)” value is 5 ± 1 %E2. Besides, the “Antagonist mode ERα Eff (%E2)” value on ERα [3] (with 10 nmol/L 17β-estradiol) stood at 76 ± 1 %E2. The “ERα degradation time course, T-47D” value on ERα [4] is given as “completely degraded”. Further, at ERα C530S mutant (ERα C530S mutant, HEK-293T), the “Agonist mode ERα C530S Eff (%E2)” value came to 2 ± 1 %E2. The “Antagonist mode ERα C530S Eff (%E2)” value at ERα C530S mutant (ERα C530S mutant, HEK-293T) was found to be 33 ± 2 %E2. Besides, on ERα C530S mutant (HEK-293T^C530S cells, compared with wild type), the “Effect of C530S mutation on antagonistic activity” value is reported as “decreased”. The “ERα degradation time course, MCF-7” value at ERα [5] (5 μmol/L over 24 h) was “completely degraded”. Further, on ERα [5] (MCF-7 cells, 1 μmol/L), the “ERα degradation (immunoblot) at 1 μmol/L” value was “efficient ability to degrade ERα”. The “ERα degradation (immunoblot)” value at ERα [5] (MCF-7 cells, 1 or 5 μmol/L) was “effective in inducing ERα degradation”.
